# Measured values taken from US20240343694A1, “PYRIMIDINE DERIVATIVE, METHOD FOR PREPARING SAME, AND PHARMACEUTICAL COMPOSITION FOR PREVENTING OR TREATING CANCER COMPRISING SAME AS ACTIVE INGREDIENT” (KOREA RESERARCH INSTITUTE OF CHEMICAL TECHNOLOGY, priority 2021, published 2024).
# Tests used:
# EGFR del19 = EGFR del19 (Homo sapiens (Human), UniProt P00533, DEL746-750); assay: HTRF inhibitory activity against EGFR mutant enzyme (EGFR del19); assay type: biochemical; settings: recombinant enzyme, 37° C. for 2 hours
# Chain of EGFR del19 (P00533 other isoform, or with tags, fused parts or gaps del 1-668/del 746-750 limits assumed): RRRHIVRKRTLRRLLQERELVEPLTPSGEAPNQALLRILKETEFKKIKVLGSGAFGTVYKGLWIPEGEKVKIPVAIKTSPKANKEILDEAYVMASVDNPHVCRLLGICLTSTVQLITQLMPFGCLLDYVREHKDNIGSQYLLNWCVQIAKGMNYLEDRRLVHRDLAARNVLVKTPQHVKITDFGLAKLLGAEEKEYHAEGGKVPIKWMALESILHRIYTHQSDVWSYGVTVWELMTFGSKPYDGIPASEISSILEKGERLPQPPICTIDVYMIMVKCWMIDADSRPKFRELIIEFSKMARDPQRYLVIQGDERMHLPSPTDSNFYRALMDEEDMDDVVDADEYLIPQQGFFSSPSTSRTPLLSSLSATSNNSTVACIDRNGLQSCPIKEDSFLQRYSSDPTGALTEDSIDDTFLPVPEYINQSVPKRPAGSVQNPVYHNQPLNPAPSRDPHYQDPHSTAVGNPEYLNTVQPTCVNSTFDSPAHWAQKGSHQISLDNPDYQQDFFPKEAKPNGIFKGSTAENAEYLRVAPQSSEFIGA
# How it was run: (§1)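 IC50 was derived from 7 concentrations by HTRF: Eu-anti-pTyr and streptavidin-XL665 for 1 h at room temperature, with the 615/665 nm ratio read. The kinase reaction ran 2 h at 37 °C in Tris pH 7.5 buffer with ATP (stated 50 mM) and biotinylated peptide (0.5 mM). Enzyme was preincubated with compound before substrate was added.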
# EGFR A763_Y764insFHEA = EGFR A763_Y764insFHEA (Homo sapiens (Human), UniProt P00533, INS763FHEA); assay: HTRF inhibitory activity against EGFR mutant enzyme (EGFR A763_Y764insFHEA); assay type: biochemical; settings: recombinant enzyme, 37° C. for 2 hours
# Chain of EGFR A763_Y764insFHEA (P00533 other isoform, or with tags, fused parts or gaps del 1-694/ins FHEA behind 763 limits assumed): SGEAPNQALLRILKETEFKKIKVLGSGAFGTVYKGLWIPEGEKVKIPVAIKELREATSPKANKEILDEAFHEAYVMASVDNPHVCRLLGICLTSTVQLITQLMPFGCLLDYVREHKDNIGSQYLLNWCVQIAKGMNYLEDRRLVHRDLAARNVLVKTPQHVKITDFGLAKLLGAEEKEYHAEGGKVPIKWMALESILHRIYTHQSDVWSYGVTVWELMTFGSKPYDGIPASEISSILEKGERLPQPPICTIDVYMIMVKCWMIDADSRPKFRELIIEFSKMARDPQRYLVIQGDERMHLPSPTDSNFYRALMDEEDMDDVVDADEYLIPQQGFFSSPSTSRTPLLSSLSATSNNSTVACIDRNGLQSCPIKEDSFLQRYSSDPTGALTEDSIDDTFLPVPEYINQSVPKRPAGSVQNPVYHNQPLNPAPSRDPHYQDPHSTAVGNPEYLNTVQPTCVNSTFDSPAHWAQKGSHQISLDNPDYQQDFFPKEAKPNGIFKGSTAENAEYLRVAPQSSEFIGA
# How it was run: as §1
# HER2 A775_G776insYVMA = HER2 A775_G776insYVMA (Homo sapiens (Human), UniProt P04626, INS775YVMA); assay: HTRF inhibitory activity against HER2 mutant enzyme; assay type: biochemical; settings: recombinant enzyme, 37° C. for 2 hours
# Chain of HER2 A775_G776insYVMA (P04626 other isoform, or with tags, fused parts or gaps del 1-675/ins YVMA behind 775 limits assumed): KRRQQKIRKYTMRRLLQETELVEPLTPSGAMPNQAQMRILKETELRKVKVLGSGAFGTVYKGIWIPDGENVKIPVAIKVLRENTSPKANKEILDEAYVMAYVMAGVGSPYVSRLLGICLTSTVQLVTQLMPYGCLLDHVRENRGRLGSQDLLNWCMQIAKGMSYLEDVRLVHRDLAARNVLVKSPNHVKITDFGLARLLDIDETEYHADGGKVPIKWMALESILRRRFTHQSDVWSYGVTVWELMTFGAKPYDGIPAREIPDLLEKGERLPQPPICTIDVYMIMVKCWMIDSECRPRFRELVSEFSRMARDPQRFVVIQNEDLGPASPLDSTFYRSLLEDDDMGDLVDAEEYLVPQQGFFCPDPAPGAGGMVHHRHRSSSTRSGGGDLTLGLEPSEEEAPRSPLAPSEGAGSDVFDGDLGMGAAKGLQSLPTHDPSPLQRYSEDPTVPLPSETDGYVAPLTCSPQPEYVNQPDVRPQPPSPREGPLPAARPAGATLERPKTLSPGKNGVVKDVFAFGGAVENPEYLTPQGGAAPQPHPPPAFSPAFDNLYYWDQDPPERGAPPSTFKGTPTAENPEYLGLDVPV
# How it was run: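 Recombinant HER2 A775_G776insYVMA preincubated with compound, then […] and biotinylated peptide ([…]) added; 2 h at 37 °C in Tris-HCl pH 7.5 buffer with MgCl2, DTT. HTRF detection (Eu anti-phosphotyrosine/streptavidin-XL665); IC50 from 7 concentrations.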
# [1] = test system: Ba/F3 EGFR V769_D770insASV; assay: Growth inhibition of Ba/F3 EGFR mutant cells (CellTiter-Glo); assay type: cell-based; settings: 72 hours
# Procedure: (§2) The activity of the compounds of the present invention against Ba/F3 EGFR V769_D770insASV and Ba/F3 EGFR D770_N771insSVD mutant cell lines was measured using the CellTiter-Glo system purchased from Promega as follows. CellTiter-Glo assay is a method to measure cell viability by monitoring ATP present in cells. Ba/F3 EGFR V769_D770insASV and Ba/F3 EGFR D770_N771insSVD mutant cell lines were purchased from Crown Biosciences. Ba/F3 EGFR V769_D770insASV and Ba/F3 EGFR D770_N771insSVD mutant cell lines were cultured in RPMI containing 10% FBS and 1% penicillin-streptomycin with 1 μg/mL of puromycin in a 5% CO2 incubator at 37° C.
# (§3) The analysis of the ability of the compounds to inhibit the growth of EGFR mutant cells was performed according to the following method. 1,000 cells/100 μL were seeded in a 96-well cell culture plate, and 24 hours thereafter, the compounds represented by Formula 1 were treated with 0 μM, 0.01 μM, 0.03 μM, 0.1 μM, 0.3 μM, 1 μM, 3 μM, and 10 μM. After incubating for 72 hours, the plate treated with the compounds were left at room temperature for 30 minutes, 100 μL of a reagent was further added thereto, and then shaken at room temperature for 10 minutes. Finally, using equipment, the ratio of […] was measured to confirm the cell growth inhibition ability of the compounds. The measured values at 8 compound concentrations were analyzed using the Prism program (version 5.01, Graphpad Software, Inc.), and the IC50 (μM) values, which are measures of the compounds' inhibitory ability, were calculated.
# [2] = test system: Ba/F3 HER2 A775_G776insYVMA; assay: Growth inhibition of Ba/F3 HER2 mutant cells (CellTiter-Glo); assay type: cell-based; settings: Mus musculus, BaF3, 72 hours
# Procedure: as §2, with “HER2 A775_G776insYVMA” for “EGFR V769_D770insASV”, “HER2 G776delinsVC” for “EGFR D770_N771insSVD”, “a” for “a 5%”
# as §3, with “HER2” for “EGFR”, “reacting” for “incubating”, “was” for “was further”
# Ba/F3 HER2 G776delinsVC = assay: as above; assay type: cell-based; settings: Mus musculus, BaF3, 72 hours
# Procedure: as §2, with “HER2 A775_G776insYVMA” for “EGFR V769_D770insASV”, “HER2 G776delinsVC” for “EGFR D770_N771insSVD”, “a” for “a 5%”
# as §3, with “HER2” for “EGFR”, “reacting” for “incubating”, “was” for “was further”
# [3] = test system: Ba/F3 EGFR D770_N771insSVD; assay: Growth inhibition of Ba/F3 EGFR mutant cells (CellTiter-Glo); assay type: cell-based; settings: Ba/F3 EGFR-D770-N771ins_SVD, 72 hours
# Procedure: as §2, §3
SMILES,IC50 (EGFR del19) [nM],IC50 (EGFR A763_Y764insFHEA) [nM],IC50 (HER2 A775_G776insYVMA) [nM],IC50 [1] [nM],IC50 [2] [nM],IC50 (Ba/F3 HER2 G776delinsVC) [nM],IC50 [3] [nM]
"C=CC(=O)Nc1cc(Nc2ncc(Cl)c(Nc3cccc4c3N(S(C)(=O)=O)CCC4)n2)c(OC)cc1N(C)CCN1CCOCC1 [Example 53, N-(5-((5-chloro-4-((1-(methylsulfonyl)-1,2,3,4-tetrahydroquinolin-8-yl)amino)pyrimidin-2-yl)amino)-4-methoxy-2-(methyl(2-morpholinoethyl)amino)phenyl)acrylamide]",,,10,10 to 30,10 to 30,,10 to 30
"C=CC(=O)Nc1cc(Nc2ncc(Cl)c(Nc3cccc4c3N(S(C)(=O)=O)CC4)n2)c(OC)cc1OCCN(C)C [Example 63, N-(5-((5-chloro-4-((1-(methylsulfonyl)indolin-7-yl)amino)pyrimidin-2-yl)amino)-2-(2-(dimethylamino)ethoxy)-4-methoxyphenyl)acrylamide]",,,< 1,10 to 30,10 to 30,,10 to 30
"C=C(F)C(=O)Nc1cc(Nc2ncc(Cl)c(Nc3cccc4c3N(S(C)(=O)=O)CC4)n2)c(OC)cc1N(C)CCN(C)C [Example 66, N-(5-((5-chloro-4-((1-(methylsulfonyl)indolin-7-yl)amino)pyrimidin-2-yl)amino)-2-((2-(dimethylamino)ethyl)(methyl)amino)-4-methoxyphenyl)-2-fluoroacrylamide]",< 1,< 1,5,10 to 30,10 to 30,,10 to 30
"C=CC(=O)Nc1cc(Nc2ncc(Cl)c(Nc3ccc(C)cc3N(C)S(C)(=O)=O)n2)c(OC)cc1N(C)CCN1CCCC1 [Example 76, N-(5-((5-chloro-4-((4-methyl-2-(N-methylmethylsulfonamido)phenyl)amino)pyrimidin-2-yl)amino)-4-methoxy-2-(methyl(2-(pyrrolidin-1-yl)ethyl)amino)phenyl)acrylamide]",< 1,< 1,1,< 10,,,< 10
"C=CC(=O)Nc1cc(Nc2ncc(Cl)c(Nc3cccc4c3N(S(C)(=O)=O)CC4)n2)c(OC)cc1OCCN1CCCC1 [Example 79, N-(5-((5-chloro-4-((1-(methylsulfonyl)indolin-7-yl)amino)pyrimidin-2-yl)amino)-4-methoxy-2-(2-(pyrrolidin-1-yl)ethoxy)phenyl)acrylamide]",< 1,< 1,1,10 to 30,,,< 10
"C=CC(=O)Nc1cc(Nc2ncc(Cl)c(Nc3cccc4c3N(S(C)(=O)=O)CC4)n2)c(OC)cc1N(C)CCN1CCC1 [Example 80, N-(2-((2-(azetidin-1-yl)ethyl)(methyl)amino)-5-((5-chloro-4-((1-(methylsulfonyl)indolin-7-yl)amino)pyrimidin-2-yl)amino)-4-methoxyphenyl)acrylamide]",< 1,< 1,1,< 10,,,< 10
"C=CC(=O)Nc1cc(Nc2ncc(Cl)c(Nc3ccc(C)cc3N(C)S(C)(=O)=O)n2)c(OC)cc1N(C)CCN1CCC1 [Example 82, N-(2-((2-(azetidin-1-yl)ethyl)(methyl)amino)-5-((5-chloro-4-((4-methyl-2-(N-methylmethylsulfonamido)phenyl)amino)pyrimidin-2-yl)amino)-4-methoxyphenyl)acrylamide]",< 1,< 1,2,< 10,,,< 10

# The remaining lines, values ahead:
IC50 (EGFR del19) [nM],IC50 (EGFR A763_Y764insFHEA) [nM],IC50 (HER2 A775_G776insYVMA) [nM],IC50 [1] [nM],IC50 [2] [nM],IC50 (Ba/F3 HER2 G776delinsVC) [nM],IC50 [3] [nM],SMILES
< 1,2,37,10 to 30,> 100,10 to 30,,"C=CC(=O)Nc1cc(Nc2ncc(Cl)c(Nc3ccccc3NS(=O)(=O)CC)n2)c(OC)cc1N(C)CCN(C)C [Example 4, N-(5-((5-chloro-4-((2-(ethylsulfonamido)phenyl)amino)pyrimidin-2-yl)amino)-2-((2-(dimethylamino)ethyl)(methyl)amino)-4-methoxyphenyl)acrylamide]"
< 1,< 1,1,10 to 30,10 to 30,,10 to 30,"C=CC(=O)Nc1cc(Nc2ncc(C(=O)OC(C)C)c(Nc3cccc4c3N(S(C)(=O)=O)CC4)n2)c(OC)cc1N(C)CCN(C)C [Example 61, isopropyl 2-((5-acrylamido-4-((2-(dimethylamino)ethyl)(methyl)amino)-2-methoxyphenyl)amino)-4-((1-(methylsulfonyl)indolin-7-yl)amino)pyrimidin-5-carboxylate]"
,,3,10 to 30,10 to 30,,10 to 30,"C=CC(=O)Nc1cc(Nc2ncc(C#N)c(Nc3cccc4c3N(S(C)(=O)=O)CC4)n2)c(OC)cc1N(C)CCN(C)C [Example 62, N-(5-((5-cyano-4-((1-(methylsulfonyl)indolin-7-yl)amino)pyrimidin-2-yl)amino)-2-((2-(dimethylamino)ethyl)(methyl)amino)-4-methoxyphenyl)acrylamide]"
< 1,< 1,3,30 to 50,10 to 30,,30 to 50,"C=CC(=O)Nc1cc(Nc2ncc(Cl)c(Nc3cccc4c3N(S(C)(=O)=O)CC4)n2)c(OC)cc1N(C)CCN1CCOCC1 [Example 64, N-(5-((5-chloro-4-((1-(methylsulfonyl)indolin-7-yl)amino)pyrimidin-2-yl)amino)-4-methoxy-2-(methyl(2-morpholinoethyl)amino)phenyl)acrylamide]"
< 1,< 1,15,10 to 30,10 to 30,,10 to 30,"C=CC(=O)Nc1cc(Nc2ncc(C(F)(F)F)c(Nc3cccc4c3N(S(C)(=O)=O)CC4)n2)c(OC)cc1N(C)CCN(C)C [Example 65, N-(2-((2-(dimethylamino)ethyl)(methyl)amino)-4-methoxy-5-((4-((1-(methylsulfonyl)indolin-7-yl)amino)-5-(trifluoromethyl)pyrimidin-2-yl)amino)phenyl)acrylamide]"
1,5,,10 to 30,50 to 100,< 10,30 to 50,"C=CC(=O)Nc1cc(Nc2ncc(F)c(Nc3cccc4c3N(C(C)=O)CC4)n2)c(OC)cc1N(C)CCN(C)C [Example 101, N-(5-((4-((1-acetylindolin-7-yl)amino)-5-fluoropyrimidin-2-yl)amino)-2-((2-(dimethylamino)ethyl)(methyl)amino)-4-methoxyphenyl)acrylamide]"
